The record followed here is ChEMBL document CHEMBL1201862, “PubChem BioAssay data set” (2004).

Some test systems named below: CAKI-1; CCRF-CEM; M19-MEL; MDA-MB-435; SNB-75; UACC-257; EKVX; COLO 205; SNB-19; KM12; HCC 2998; SF-539; HOP-62; RPMI-8226; RXF 393; BT-549; NCI-H522; HT-29; DU-145; NCI/ADR-RES.
Assay in all cases: NCI tumour cell line growth inhibition, 48 h

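Test compounds were applied to cells in 96-well plates for 48 hours at 5 doses. GI50 = concentration required for 50% inhibition of growth.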 Active and inactive are the calls of the source. No stated cut-off is given here; in the data, active = GI50 up to about 1.1 µM and inactive = higher.

Turning to `CN(C)c1ccc(/C=C2\C[N+](C)(C)C/C(=C\c3ccc(N(C)C)cc3)C2=O)cc1`, the GI50 in the assay with CAKI-1 was > 100 µM (inactive); in the assay with CCRF-CEM, 9.53 µM (inactive); in the assay on M19-MEL it was 13.4 µM (inactive); in the assay with MDA-MB-435 it was 12.1 µM (inactive); with SNB-75, 17.1 µM (inactive); in the assay on UACC-257, 12.1 µM (inactive). Moreover, the GI50 in the assay with EKVX was 38 µM (inactive); in the assay on COLO 205, 2.61 µM (inactive); in the assay with SNB-19, 17.5 µM (inactive); in the assay with KM12, 6.14 µM (inactive); in the assay on HCC 2998, 8.18 µM (inactive); in the assay on SF-539, 21.1 µM (inactive). For the same molecule, the GI50 is 42.8 µM (inactive) in the assay on HOP-62; 3.47 µM (inactive) with RPMI-8226; > 48.2 µM (inactive) in the assay with RXF 393; 10.5 µM (inactive) in the assay with BT-549; 9.66 µM (inactive) with NCI-H522; 9.18 µM (inactive) in the assay with HT-29. Further, the GI50 in the assay on DU-145 is 31.3 µM (inactive).
With `C=C1C(=O)C23C(O)CC4C(C)(C)CCC(O)C4(C)C2CC(OC(C)=O)C1[C@H]3O` (stereo not given in full), the GI50 in the assay on CAKI-1 was 2.37 µM (inactive); in the assay with CCRF-CEM, 0.442 µM (active); in the assay with M19-MEL, 1.61 µM (inactive); in the assay on MDA-MB-435 it was 7.96 µM (inactive); in the assay on SNB-75, 8.61 µM (inactive); in the assay on UACC-257, 3.28 µM (inactive). In addition, the GI50 in the assay on EKVX is 4.88 µM (inactive); with COLO 205 it was 1.98 µM (inactive); in the assay on SNB-19, 8.99 µM (inactive); with KM12, 15.8 µM (inactive); in the assay on HCC 2998, 4.06 µM (inactive); in the assay with SF-539 it was 3.5 µM (inactive). For the same molecule, the GI50 in the assay on HOP-62 is 14.7 µM (inactive); in the assay with NCI/ADR-RES it was 15.3 µM (inactive); with RPMI-8226 it was 0.869 µM (active); in the assay on RXF 393, 2.62 µM (inactive); with NCI-H522 it was 0.123 µM (active); in the assay with HT-29, 0.351 µM (active). Also, the GI50 in the assay with DU-145 was > 10 µM (inactive).
In the case of `COC(=O)c1cc(C)n(NC(=O)OC(C)(C)C)c1C`, the GI50 in the assay on CAKI-1, in the assay on CCRF-CEM, in the assay with M19-MEL, in the assay with SNB-75, in the assay on UACC-257 and with EKVX was > 100 µM (inactive) throughout. The GI50 with COLO 205, in the assay with SNB-19, with KM12, with HCC 2998, in the assay on SF-539 and in the assay with HOP-62 was > 100 µM (inactive) throughout. Besides, the GI50 with RPMI-8226, in the assay with RXF 393, in the assay on NCI-H522 and in the assay with HT-29 was > 100 µM (inactive) in each case.
On to `CCCCCCCCCCCCCCCC[N+](C)(C)Cc1ccc(C[N+](C)(C)CCCCCCCCCCCCCCCC)cc1`, for which the GI50 in the assay with CAKI-1 is 10.1 µM (inactive); in the assay with CCRF-CEM it was 1.46 µM (inactive); in the assay with M19-MEL, 2.67 µM (inactive); in the assay on SNB-75, 1.94 µM (inactive); in the assay on UACC-257, 3.4 µM (inactive); in the assay with EKVX, 3 µM (inactive). Also, the GI50 was 2.7 µM (inactive) in the assay with COLO 205; 2.52 µM (inactive) with SNB-19; 2.56 µM (inactive) in the assay on KM12; 3.72 µM (inactive) in the assay on HCC 2998; 2.02 µM (inactive) in the assay on SF-539; 4.76 µM (inactive) in the assay with HOP-62. Besides, the GI50 in the assay on RPMI-8226 was 2.63 µM (inactive); in the assay on RXF 393, 0.923 µM (active); in the assay on NCI-H522, 2.58 µM (inactive); with HT-29, 2.28 µM (inactive).
Take `Nc1n[nH]c(N)n1` [GUANAZOLE]: the GI50 in the assay with CAKI-1 was 3550 µM (inactive); with CCRF-CEM it was 1720 µM (inactive); with M19-MEL, > 10000 µM (inactive); in the assay with MDA-MB-435 it was > 9750 µM (inactive); with SNB-75, 9250 µM (inactive); in the assay with UACC-257, 6430 µM (inactive). Moreover, the GI50 in the assay on EKVX is 7350 µM (inactive); in the assay with COLO 205, > 8990 µM (inactive); in the assay with SNB-19, 9980 µM (inactive); with KM12, 8890 µM (inactive); in the assay on HCC 2998, 6900 µM (inactive); in the assay on SF-539, 2510 µM (inactive). Further, the GI50 in the assay with HOP-62 is 2360 µM (inactive); in the assay with NCI/ADR-RES, 2580 µM (inactive); in the assay with RPMI-8226 it was 4670 µM (inactive); in the assay on RXF 393 it was 6820 µM (inactive); in the assay on BT-549, > 6490 µM (inactive); in the assay with NCI-H522, 2680 µM (inactive). For the same molecule, the GI50 with HT-29 was 5060 µM (inactive); in the assay with DU-145 it was 5130 µM (inactive).
